# Experimental data: patent publication US11944661B2, “Pharmaceutical composition containing extract of leaves of Vaccinium bracteatum Thunb. for prevention or treatment of stress disease and depression” (JEONNAM BIOINDUSTRY FOUNDATION, priority 2017, dated 2024)
# Structures can show the parent of a compound that is named as a salt. Where two headings read alike, the source gives them in different places.
# Key:
# SH-SY5Y cells = assay: Cytotoxicity of the pharmacological inhibitors alone, 24-hour incubation
# Experimental: An experiment was carried out to find out the working signaling pathway responsible for the neuroprotective activity of the Vaccinium bracteatum Thunb. leaf extracts against corticosterone-induced neuronal damage. In this experiment, SH-SY5Y cells were pretreated for 1 hour with wortmanin, rapamycin, H89, and PD98059, which are respective pharmacological inhibitors of the PI3K (phosphoinositide 3-kinase), mTOR, PKA (protein kinase A), and MAPK/ERK kinase pathways and then incubated for 2 hours with the hot-water extracts of Vaccinium bracteatum Thunb. leaves (3 μg/ml). Thereafter, 24 hours of incubation with corticosterone (1 mM) was followed by measuring cell viability through MTT assay.
# For use in the experiment, the inhibitors alone were assayed for cytotoxicity.
# male ICR mice = assay: Forced swimming test (FST) in normal mice after 1 or 6 days of oral administration; format: in vivo; conditions: comparative group, dose not given
# Experimental: For use in assaying an antidepressant effect of the Vaccinium bracteatum Thunb. leaf extracts, male ICR mice, 6 weeks of age, were purchased from […], Korea. The animals were acclimated to a certain condition in an animal breeding room (temperature: 22±2° C., humidity: 50±5%, contrast: 12-hour light/12-hour dark cycle) for one week before use. Male ICR mice were orally administered the Vaccinium bracteatum Thunb. leaf extract the present invention while escitalopram oxalate was used as an antidepressant for a comparative group. Oral administration was conducted for 1 or 6 days according to the experiment. In a forced swimming test (FST), which is a pre-swim test on the day before the main test (post-swim), tap water of around 25° C. was poured into a cylindrical water tank (about 20 cm in diameter, 40 cm in height) to the height of 15 cm from the bottom, after which the mice were put thereinto and forced to swim for 15 minutes. Then, the mice were withdrawn from the water, wiped with a dry towel, and returned to the breeding box. After 1 or 6 days of drug administration, the main test (post-swim) was performed and video was taken with forced swimming for 6 minutes with the mice in the cylinder. In the recorded images for the five minutes exclusive of the first one minute, the animal behavior was classified into three types for analysis: the animals were floating in the water, showing a slight movement, with only a part of the upper body including the face exposed on the water face (immobility behavior); the animals were swimming around the cylinder in the horizontal direction while splashing the water with their forepaws and rear paws (swimming behavior); and the animals were making the fierce movement of pulling the paws out of the water, scrapping the wall (climbing behavior). Times for the three movements were measured.
# corticosterone = assay: Serum stress hormone corticosterone level (ELISA) in normal mice after six days of administration; format: in vivo; conditions: comparative group, dose not given
# Experimental: After six days of drug administration to mice in a normal state, effects on the level of the stress hormone corticosterone in sera of the mice were measured using the Abnova ELISA kit according to the manufacturer's instruction.
# [1] = system: male ICR mice subjected to chronic restraint stress (CRS); assay: Forced swimming test (FST) in chronic restraint stress (CRS) mice; format: in vivo; conditions: three weeks of CRS; 10 mg/kg p.o
# Experimental: In a forced swimming test (FST), which is a pre-swim test on the day before the main test (post-swim), tap water of around 25° C. was poured into a cylindrical water tank (about 20 cm in diameter, 40 cm in height) to the height of 15 cm from the bottom, after which the mice were put thereinto and forced to swim for 15 minutes. Then, the mice were withdrawn from the water, wiped with a dry towel, and returned to the breeding box. After 1 or 6 days of drug administration, the main test (post-swim) was performed and video was taken with forced swimming for 6 minutes with the mice in the cylinder. In the recorded images for the five minutes exclusive of the first one minute, the animal behavior was classified into three types for analysis: the animals were floating in the water, showing a slight movement, with only a part of the upper body including the face exposed on the water face (immobility behavior); the animals were swimming around the cylinder in the horizontal direction while splashing the water with their forepaws and rear paws (swimming behavior); and the animals were making the fierce movement of pulling the paws out of the water, scrapping the wall (climbing behavior). Times for the three movements were measured. Male ICR mice were purchased and subjected to chronic restraint stress (CRS). In this regard, a constant restraint stress was given by immobilizing the mice for 6 hours per day (a.m. 11 to p.m.5) in an acrylic box 20 cm in height and 7 cm in diameter for three weeks. The hot-water extracts of Vaccinium bracteatum Thunb. leaves were orally administered at each dose to the mice daily 30 min before the stress was given at the same time. For the control, the same volume of saline was administered. As a comparative group, escitalopram oxalate, which is an antidepressant, was orally administered. Animal behavior tests were performed the next day after 3 weeks of restraint stress stimulation. The open field test (OFT) was followed by the forced swimming test (FST). […]
# [2] = system: male ICR mice subjected to chronic restraint stress (CRS); assay: Open field test (OFT) in chronic restraint stress (CRS) mice; format: in vivo; conditions: three weeks of CRS; 5 minutes; positive control
# Experimental: Male ICR mice were purchased and subjected to chronic restraint stress (CRS). In this regard, a constant restraint stress was given by immobilizing the mice for 6 hours per day (a.m. 11 to p.m.5) in an acrylic box 20 cm in height and 7 cm in diameter for three weeks. The hot-water extracts of Vaccinium bracteatum Thunb. leaves were orally administered at each dose to the mice daily 30 min before the stress was given at the same time. For the control, the same volume of saline was administered. As a comparative group, escitalopram oxalate, which is an antidepressant, was orally administered. Animal behavior tests were performed the next day after 3 weeks of restraint stress stimulation. The open field test (OFT) was followed by the forced swimming test (FST). After the FST evaluation, whole blood was collected from the mice which were then autopsied to excise the hippocampus and prefrontal cortex. These brain tissues were immediately stored at −70° C. until use in experiments. The open field test (OFT) is an experimental test used to assay locomotor activity levels of animals to determine the anti-anxiety and anti-depressive effects of drugs. An OFT box is an arena having the dimensions of 60 cm diameter×20 cm height with the bottom surface divided into 25 cells. […] In the OFT box, the number of cells which the animal voluntarily crossed for 5 minutes was counted. […]
smiles,measurement,setting,value
COc1cccc(-c2cc(=O)c3ccccc3o2)c1N [PD98059],cytotoxicity of inhibitor alone,SH-SY5Y cells,No cytotoxicity
CO[C@H]1C[C@@H]2CC[C@@H](C)[C@@](O)(O2)C(=O)C(=O)N2CCCC[C@H]2C(=O)O[C@H]([C@H](C)C[C@@H]2CC[C@@H](O)[C@H](OC)C2)CC(=O)[C@H](C)/C=C(\C)[C@@H](O)[C@@H](OC)C(=O)[C@H](C)C[C@H](C)/C=C/C=C/C=C/1C [rapamycin],cytotoxicity of inhibitor alone,SH-SY5Y cells,No cytotoxicity
O=S(=O)(NCCNC/C=C/c1ccc(Br)cc1)c1cccc2cnccc12 [H89],cytotoxicity of inhibitor alone,SH-SY5Y cells,No cytotoxicity
CN(C)CCC[C@@]1(c2ccc(F)cc2)OCc2cc(C#N)ccc21 [escitalopram oxalate],climbing time,male ICR mice; one-day administration,12.43 ± 3.47 s
same,immobility time,male ICR mice; one-day administration,194.65 ± 11.55 s
same,immobility time,male ICR mice; six-day administration,169.65 ± 7.15 s
same,swimming time,male ICR mice; six-day administration,128.16 ± 6.65 s
same,stress hormone corticosterone in sera,corticosterone,765 ± 97.5 ng/mL
same,climbing time,[1],105.23 ± 15.37 s
same,immobility time,[1],154.74 ± 14.80 s
same,swimming time,[1],146.58 ± 14.84 s
same,number of crossing (locomotor activity),[2],182.73±5.60 crossings
COC[C@H]1OC(=O)c2coc3c2[C@@]1(C)C1=C(C3=O)[C@@H]2CCC(=O)[C@@]2(C)C[C@H]1OC(C)=O [wortmanin],cytotoxicity of inhibitor alone,"SH-SY5Y cells; 24-hour incubation, inhibitor alone",except for the PI3K inhibitor (wortmanin)
